# Measurements published in ChEMBL document CHEMBL1152118, “Synthesis and pharmacological profile of two novel heterocyclic chromanols, CP-80,798 and CP-85,958, as potent LTD4 receptor antagonists” (Bioorg Med Chem Lett, 1995).
# Experiments:
# [1] = target: T1, Cysteinyl leukotriene receptor 1 (Cavia porcellus, UniProt Q2NNR5); assay: Inhibition of [3H]LTD4 binding to LTD4 receptor in guinea pig lung membranes; assay type: cell membranes, Membrane
# T1 sequence (Q2NNR5 whole entry): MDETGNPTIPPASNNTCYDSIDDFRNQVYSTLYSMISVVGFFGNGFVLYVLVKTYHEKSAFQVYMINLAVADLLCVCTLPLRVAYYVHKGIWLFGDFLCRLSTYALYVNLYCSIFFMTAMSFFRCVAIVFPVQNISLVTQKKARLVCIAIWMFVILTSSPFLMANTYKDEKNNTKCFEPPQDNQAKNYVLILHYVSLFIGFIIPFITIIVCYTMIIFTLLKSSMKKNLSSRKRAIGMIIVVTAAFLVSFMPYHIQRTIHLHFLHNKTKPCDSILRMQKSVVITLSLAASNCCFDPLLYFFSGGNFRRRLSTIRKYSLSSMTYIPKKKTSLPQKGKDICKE
# [2] = target: T2, Polyunsaturated fatty acid 5-lipoxygenase (Rattus norvegicus, UniProt P12527); assay: Inhibition of 5-Lipoxygenase (5-LO) in rat basophilic leukemia cells; assay type: cell-based, RBL-1
# T2 sequence (P12527 whole entry): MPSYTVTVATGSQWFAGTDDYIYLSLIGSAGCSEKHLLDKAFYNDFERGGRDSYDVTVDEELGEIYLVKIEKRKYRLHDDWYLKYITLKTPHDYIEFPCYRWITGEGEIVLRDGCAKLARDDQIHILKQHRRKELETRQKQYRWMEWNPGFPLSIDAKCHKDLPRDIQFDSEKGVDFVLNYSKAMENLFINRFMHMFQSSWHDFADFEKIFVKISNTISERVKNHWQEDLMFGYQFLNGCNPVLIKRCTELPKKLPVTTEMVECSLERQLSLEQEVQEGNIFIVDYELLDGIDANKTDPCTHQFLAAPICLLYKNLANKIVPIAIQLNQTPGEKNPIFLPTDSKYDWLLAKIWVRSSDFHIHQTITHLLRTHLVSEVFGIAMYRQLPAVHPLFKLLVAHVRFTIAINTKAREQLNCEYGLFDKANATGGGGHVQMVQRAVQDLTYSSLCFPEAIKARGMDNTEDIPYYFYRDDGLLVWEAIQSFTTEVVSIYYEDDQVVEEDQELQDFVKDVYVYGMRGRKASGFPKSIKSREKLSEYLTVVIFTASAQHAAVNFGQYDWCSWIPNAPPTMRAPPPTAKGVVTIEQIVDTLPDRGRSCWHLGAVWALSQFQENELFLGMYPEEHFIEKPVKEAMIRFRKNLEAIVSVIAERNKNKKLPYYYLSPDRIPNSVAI
# Cavia porcellus [3] = assay: Inhibitory activity against LTD4 challenged pulmonary function test by oral administration; assay type: functional
# Cavia porcellus [4] = assay: Inhibitory activity against LTD4 challenged pulmonary function test by oral administration (2 hr preantigen); assay type: functional
# Cavia porcellus [5] = assay: Dose required to block the airway obstruction induced by aerosolized antigen by oral administration; assay type: functional
SMILES,Ki [1] [µM],IC50 [2] [µM],ED50 (Cavia porcellus [3]) [mg/kg],ED50 (Cavia porcellus [4]) [mg/kg],ED50 (Cavia porcellus [5]) [mg/kg]
CCCCCC(O)c1cccc(OCc2ccc3ccccc3n2)c1 (stereo not drawn) [REV-5901],8,–,–,–,–
CCCCC1CCc2ccc(OCc3ccc4ccccc4n3)cc2C1O (stereo not drawn),6.8,–,–,–,–
O[C@@H]1c2cc(OCc3ccc4ccccc4n3)ccc2OC[C@@H]1Cc1cccnc1,0.65,1.9,3,20,16
O[C@@H]1c2cc(OCc3ccc4ccccc4n3)ccc2CC[C@H]1Cc1ccccc1,1.5,–,–,–,–
O=C(O)c1cccc(C[C@@H]2COc3ccc(OCc4nc5cc(F)ccc5s4)cc3[C@@H]2O)c1,24,8.1,0.49,0.43,10.8
